Experimental data from ChEMBL document CHEMBL3124812, “Benzamidobenzoic acids as potent PqsD inhibitors for the treatment of Pseudomonas aeruginosa infections” (Eur J Med Chem, 2014).
The source made the active and inactive calls. The rule behind the calls is not given here.

How the values were obtained:
Pseudomonas aeruginosa = test: Inhibition of Pseudomonas aeruginosa His-6-tagged PqsD expressed in Escherichia coli BL21 (lambdaDE3) using anthraniloyl-CoA/beta-ketodecanoic acid at 10 uM as substrate by LC-MS/MS analysis
Escherichia coli = test: Inhibition of Escherichia coli RNAP assessed as incorporation of [5,6-3H]UTP at 100 uM preincubated for 10 mins followed by DNA template and ATP, CTP, GTP, UTP, [5,6-3H]UTP addition measured after 10 mins by scintillation counting analysis

- inhibition (Pseudomonas aeruginosa): inactive
- inhibition (Escherichia coli): 15%
Compound: O=C(O)c1ccc(NC(=O)c2ccc(-c3ccccc3)cc2)cc1
